In patent US20230021562A1, “[…] D[…]-1 INHIBITORS” (priority 2019, published 2023):
“And” between values parts separate entries of the source, which are not always exact repeats. Equal values may be shown once. Read-outs that look alike come from different tables or passages of the source.

Legend:
MOLP8 cell line = assay: MOLP8 CellEvent Caspase-3/7 Green live-cell IncuCyte apoptosis assay; type: cell-based, human; details: averaged values
Procedure: (§1) MCL-1 is a regulator of apoptosis and is highly over-expressed in tumor cells that escape cell death. The assay evaluates the cellular potency of small-molecule compounds targeting regulators of the apoptosis pathway, primarily MCL-1, Bfl-1, Bcl-2, and other proteins of the Bcl-2 family. Protein-protein inhibitors disrupting the interaction of anti-apoptotic regulators with BH3-domain proteins initiate apoptosis.
Activation of the apoptotic pathway was measured using the CellEvent™ Caspase-3/7 Green ReadyProbes™ Reagent (Thermo Fisher C10423, C10723). This assay produces a green fluorescent stain in cells that enter the apoptosis pathway. CellEvent® Caspase-3/7 Green reagent is a four amino acid peptide (DEVD) conjugated to a nucleic acid-binding dye that is non-fluorescent when not bound to DNA. The CellEvent® Caspase-3/7 Green reagent is intrinsically non-fluorescent, as the DEVD peptide inhibits binding of the dye to DNA. Upon activation of caspase-3/7 in apoptotic cells, the DEVD peptide is cleaved and the free dye can bind DNA, generating a bright green fluorescence. The activation of Caspase-3 and Caspase-7 is downstream of inhibition of MCL-1 or other apoptosis inhibiting proteins in cell lines that are dependent on them.
The live-cell readout on the IncuCyte permits tracking over time of the Caspase activation. […] The IncuCyte readout also allows one to normalize for cell number, as the suspension cells are hard to distribute evenly.
Signals were measured every 2 h for a duration of 22 h. The ratio of the Caspase mask to the Confluence mask, per image, as raw data, was calculated and the kinetic trace for every well was exported to Genedata Screener for analysis.
In Genedata Screener values for 6 h, 12 h, and 22 h from the kinetic traces were extracted. The values were normalized against negative controls (untreated cells). A standard dose-response analysis was performed on the normalized data.
The following data was reported at each of the following three aforementioned time points: (a) The dose-response curve, (b) The qAC50 and qAC50 Mode, and (c) Max Activity.
Cells were maintained in culture medium containing 10% Heat Inactivated (HI) FBS, 2 mM L-Glutamine and 50 μg/mL Gentamycin phenol red free RPMI-1640. Cells were split at 0.4 million/mL twice a week.
On Day 1, plates containing individual wells with test compounds at 10 mM concentration, 150 nL per well. The final concentrations range from […] compound (and no compound control) and compounds were thawed at room temperature for 1 hour. 25 μl of prewarmed medium was added into each well by multidrop (column 1, 3-22, 24), followed by addition of DMSO control (0.6% DMSO) in column 2. The plate was sealed using Breathe-Easy® sealing membrane and shaken for 30 min at room temperature to dissolve the test compound(s) in medium. The plate was then kept in the incubator for 1 hour at 37° C., 5% CO2.
MOLP8 cells in medium at […] (20000/50 μl final in assay) were prepared with CellEvent™ Caspase-3/7 Green Detection Reagent at 4 μM (2 μM final in assay). Once prepared, the cells were added to the test compound plate in an amount of 20000 and the plate was immediately placed in the IncuCyte and imaging started using following settings: 10× objective, 2 s exposure time in green channel, interval of 2 h, acquisition stopped after 22 h.
For analysis in IncuCyte, a Basic Analysis protocol was defined to calculate the “confluence” and “caspase” areas from the “Phase” and “green” images, respectively, as follows: (a) Confluence: Segmentation Adjustment 1, Hole Fill 0, Adjust Size −2, No filters (b) Caspase: Top-Hat segmentation, Radius 10, Threshold 0.3 GCU, Edge Split On with sensitivity 0, Hole Fill 0, Adjust Size 1, and filter on a minimum Area of 20 μm^2. The analyzer is trained on a sufficient number of positive and negative control wells, as well as compound treated wells, verifying that the “confluence” layer detects both live and dead (condensed) cells. […]

[1] = biological target: Myeloid Cell Leukemia 1 (Mcl-1) (Homo sapiens, UniProt Q07820); assay: biochemical; type: binding; details: HTRF Ki (nM)
Chain of Myeloid Cell Leukemia 1 (Mcl-1) (Q07820 whole entry): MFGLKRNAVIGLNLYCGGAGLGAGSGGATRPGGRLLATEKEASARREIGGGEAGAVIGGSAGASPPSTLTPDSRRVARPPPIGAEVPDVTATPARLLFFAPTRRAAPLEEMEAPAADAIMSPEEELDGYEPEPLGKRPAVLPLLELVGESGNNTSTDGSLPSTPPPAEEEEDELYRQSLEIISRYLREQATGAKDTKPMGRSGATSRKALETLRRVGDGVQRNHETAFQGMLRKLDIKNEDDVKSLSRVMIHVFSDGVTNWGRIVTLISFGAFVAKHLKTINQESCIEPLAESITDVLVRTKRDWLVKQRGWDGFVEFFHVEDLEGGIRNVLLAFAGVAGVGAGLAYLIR

[2] = tested on: MOLP-8 human multiple myeloma cell line; assay: MOLP8 Caspase-Glo 3/7 luminescent assay; type: cell-based; details: averaged over all runs on all batches
Excerpt: as §1
The Caspase-Glo® 3/7 Assay is a luminescent assay that measures caspase-3 and -7 activities in purified enzyme preparations or cultures of adherent or suspension cells. The assay provides a proluminescent caspase-3/7 substrate, which contains the tetrapeptide sequence DEVD. This substrate is cleaved to release aminoluciferin, a substrate of luciferase used in the production of light. Addition of the single Caspase-Glo® 3/7 Reagent in an “add-mix-measure” format results in cell lysis, followed by caspase cleavage of the substrate and generation of a “glow-type” luminescent signal.
This assay uses the MOLP-8 human multiple myeloma cell line, which is sensitive to MCL-1 inhibition.
Cell cultures were maintained between 0.2 and 2.0×10^6 cells/mL. The cells were harvested by collection in 50 mL conical tubes. The cells were then pelleted at 500 g for 5 mins before removing supernatant and resuspension in fresh pre-warmed culture medium. The cells were counted and diluted as needed.
The assay reagent was prepared by transferring the buffer solution to the substrate vial and mixing. The solution may be stored for up to 1 week at 4° C. with negligible loss of signal.
Compounds were delivered in assay-ready plates (Proxiplate) and stored at −20° C.
Assays always include 1 reference compound plate containing reference compounds. The plates were spotted with 40 nL of compounds (0.5% DMSO final in cells; serial dilution; 30 μM highest conc. 1/3 dilution, 10 doses, duplicates). The compounds were used at room temperature and 4 μL of pre-warmed media was added to all wells except column 2 and 23. The negative control was prepared by adding 1% DMSO in media. The positive control was prepared by adding the appropriate positive control compound in final concentration of 60 μM in media. The plate was prepared by adding 4 μL negative control to column 23, 4 μL positive control to column 2 and 4 μL cell suspension to all wells in the plate. The plate with cells was then incubated at 37° C. for 2 hours. The assay signal reagent is the Caspase-Glo solution described above, and 8 μL was added to all wells. The plates were then sealed and measured after 30 minutes.
The activity of a test compound was calculated as percent change in apoptosis induction as follows: […]

[3] = read-out: MOLP8 Caspase 3/7 AC50 at 6 h, MOLP8 cells, 6 h
[4] = read-out: MOLP8 Caspase 3/7 AC50 at 12 h, MOLP8 cells, 12 h
[5] = read-out: MOLP8 Caspase 3/7 AC50 at 22 h, MOLP8 cells, 22 h
[6] = Homo sapiens, MOLP-8, 2 h, read-out: MOLP8 Caspase-Glo AC50 (nM), MOLP8 cells, 2 hours incubation
[7] = MOLP8 cells, 2 hours incubation, read-out: MOLP8 Caspase-Glo AC50
[8] = Homo sapiens, MOLP-8, 6 h, read-out: MOLP8 Caspase 3/7 AC50 at 6 h (μM), MOLP8 cells, 6 h
[9] = Homo sapiens, MOLP-8, 12 h, read-out: MOLP8 Caspase 3/7 AC50 at 12 h (μM), MOLP8 cells, 12 h
[10] = Homo sapiens, MOLP-8, 22 h, read-out: MOLP8 Caspase 3/7 AC50 at 22 h (μM), MOLP8 cells, 22 h

Structure (SMILES)	AC50 (MOLP8 cell line; [3]) [µM]	AC50 (MOLP8 cell line; [4]) [µM]	AC50 (MOLP8 cell line; [5]) [µM]	Ki [1]	AC50 [2, 6] [nM]	AC50 [2, 7] [nM]	AC50 (MOLP8 cell line; [8]) [µM]	AC50 (MOLP8 cell line; [9]) [µM]	AC50 (MOLP8 cell line; [10]) [µM]	AC50 ([2]; Homo sapiens, MOLP-8, 2 h, MOLP8 cells, 2 hours incubation, read-out: MOLP8 Caspase-Glo AC50) [nM]
Cc1nn(CCO)c2c1-c1c(Cl)ccc3c(c(C(=O)O)n(C)c13)CCCOc1cc(cc3ccccc13)SCc1cc(nn1C)CN(C)C2 (single isomer, unassigned) [Compound 40]	~26.3	> 30.2	~15.6	2.48 nM and 2.61 nM	10700					
Cc1nn(CCN2CCOCC2)c2c1-c1c(Cl)ccc3c(c(C(=O)O)n(C)c13)CCCOc1cc(cc3ccccc13)SCc1cc(nn1C)CN(C)C2 (single isomer, unassigned) [Compound 41]	0.19	0.2	0.18	0.05 nM and 0.03 nM		72				
Cc1nn(CCN2CCOCC2)c2c1-c1c(Cl)ccc3c(c(C(=O)O)n(C)c13)CCCOc1cc(cc3ccccc13)SCc1cc(nn1C)CN(C)C2 (single isomer, unassigned) [Compound 42]	2.96	3.18	2.98	0.79 nM		1260				
Cc1c2c(nn1C)CSCc1cc(n[nH]1)CSc1cc(c3ccccc3c1)OCCCc1c(C(=O)O)n(C)c3c-2c(Cl)ccc13 [Compound 3]				0.08 nM and 0.11 nM	284		0.6	0.55	0.47	
Cc1c2c(nn1C)CSCc1cc(nn1CCO)CSc1cc(c3ccccc3c1)OCCCc1c(C(=O)O)n(C)c3c-2c(Cl)ccc13 [Compound 6]				0.16 nM	414		0.71	0.63	0.48	
COCCn1nc2cc1CSc1cc(c3ccccc3c1)OCCCc1c(C(=O)O)n(C)c3c(c(Cl)ccc13)-c1c(nn(C)c1C)CSC2 [Compound 10]				0.11 nM	49		0.2	0.22	0.21	
Cc1c2c(nn1C)CSCc1cc(nn1CC1CCOCC1)CSc1cc(c3ccccc3c1)OCCCc1c(C(=O)O)n(C)c3c-2c(Cl)ccc13 [Compound 11]				0.47 nM and 0.43 nM			0.37	0.43	0.41	385
